Test results as given in patent publication US10316050B2, “PT (IV) complexes containing 4,4′-disubstituted-2,2′-bipyridyl and their use in cancer therapy” (THE BOARD OF REGENTS OF THE NEVADA SYSTEM OF HIGHER …, priority 2014, dated 2019).

Key:
Assay type in all cases: cell-based, human
[1] = system: phosphorylated H2AX (γH2AX) in A549 cells; assay: Flow cytometry of phosphorylated H2AX, A549; conditions: A549, 25 μM Pt(IV)-4C or 7.5 μM Pt(IV)-5C for 6 hours, analyzed 12 hours post treatment
Experimental: (§1) FIG. 9 is a series of graphs plotting Pt(IV) complex-induced phosphorylation of H2AX in A549 cells (top panels) and DU145 cells (bottom panels). A549 cells were treated with control (left), 25 μM Pt(IV)-4C (center), or 7.5 μM Pt(IV)-5C (right) for 6 hours, and analyzed 12 hours post treatment. DU145 cells were treated for 2 hours with control (left), 10 μM Pt(IV)-4C (center), or 2.5 μM Pt(IV)-5C (right), and analyzed 7 hours post treatment. Data are representative of three independent experiments.
(§2) Cells (200,000 to 250,000) were seeded in 60 mm dishes and incubated at 37° C. in a humidified, 5% CO2 atmosphere for 2 days to reach ˜50-60% confluence. The cells were treated with the platinum complexes as indicated, the floating cells were collected, and both attached and floating cells were washed 2× with PBS. The cells were resuspended in fresh medium and incubated as indicated. After incubation, both the floating and attached cells were collected and fixed by incubation in 4% formaldehyde for 10 minutes at room temperature. The fixed cells were pelleted and permeabilized by incubation in 500 μL of ice-cold methanol at 4° C. for 10 minutes. The samples were stored at −20° C. until analysis. For analysis, the cells were pelleted and washed 2× with 1% BSA in PBS. […] After washing 2× with 1% BSA, the cells were resuspended in PBS and analyzed on a Becton Dickinson FACS Calibur. […]

[2] = system: phosphorylated H2AX (γH2AX) in DU145 cells; assay: Flow cytometry of phosphorylated H2AX, DU145; conditions: DU145, 10 μM Pt(IV)-4C or 2.5 μM Pt(IV)-5C for 2 hours, analyzed 7 hours post treatment
Experimental: as §1, §2

DU145 cells = assay: Cell cycle analysis, propidium iodide flow cytometry, DU145; conditions: DU145, 10 μM Pt(IV)-4C or 2.5 μM Pt(IV)-5C for 1 hour, analyzed 12 hours post treatment
Experimental: FIG. 10 is a series of plots from a cell cycle analysis of A549 cells (top) and DU145 cells (bottom) cells treated with Pt(IV)-4C and Pt(IV)-5C. A549 cells were treated for 5 hours with control (left), 25 μM Pt(IV)-4C (center), or 7.5 μM Pt(IV)-5C (right), and analyzed 12 hours post treatment. DU145 cells were treated for 1 hour with control (left), 10 μM Pt(IV)-4C (center), or 2.5 μM Pt(IV)-5C (right), and analyzed 12 hours post treatment. Data are representative of three independent experiments.
Cells (˜50 to 60% confluent in 60 mm dishes) were treated as indicated with the platinum compound. After treatment, the floating cells were collected, and both attached and floating cells were washed 2× with PBS. The cells were resuspended in fresh medium and incubated as indicated. The cells were harvested (both the floating and attached cells were collected), counted, and pelleted. The cells were then washed two times with 5 mL PBS, fixed by resuspending in 0.1 mL of PBS and 1 mL of ice-cold 95% ethanol with gentle vortexing. Fixed cells were stored at 4° C. until analysis. For analysis, fixed cells were washed once with 1-2 mL of PBS and centrifuged at 500×g for 5 minutes. The cell pellet was resuspended in 100 μL of a 1.0% Triton X-100 buffer solution, and 100 μL of a 1.0 mg/mL RNAse solution was added and allowed to stand at room temperature for 10-15 minutes. […]

[3] = system: cleaved-PARP in A549 cells; assay: Flow cytometry of cleaved-PARP, A549; conditions: A549, 25 μM Pt(IV)-4C or 7.5 μM Pt(IV)-5C for 5 hours, analyzed 12 hours post treatment
Experimental: FIG. 12 is a series of histograms indicating Pt(IV)-4C and Pt(IV)-5C-induced cleavage of PARP in A549 cells (top panels) and in DU145 cells (bottom). A549 cells were treated for 5 hours with control (left), 25 μM Pt(IV)-4C (center), or 7.5 μM Pt(IV)-5C (right), and analyzed 12 hours post treatment. DU145 cells were treated for 2 hours with control (left), 10 μM Pt(IV)-4C (center), or 2.5 μM Pt(IV)-5C (right), and analyzed seven hours post treatment. Data are representative of three independent experiments.
as §2

Compound	level of phosphorylated H2AX (γH2AX) [1]	level of phosphorylated H2AX (γH2AX) [2]	effect on the cell cycle / sub-G1 peak (DU145 cells)	fold increase of cleaved-PARP [3] [fold]
CC(=O)[O][Pt]([Cl])([Cl])[O]C(C)=O.CCCCCOc1ccnc(-c2cc(OCCCCC)ccn2)c1 [Pt(IV)-5C, [Pt(IV)Cl2(OAc)2(4,4′-dipentoxy-2,2′-bipyridine)]]	increase of γH2AX	increase of γH2AX	did not affect the cell cycle	~7
[Pt(IV)Cl2(OAc)2(4,4′-dibutoxy-2,2′-bipyridine)] [Pt(IV)-4C]	increase of γH2AX	increase of γH2AX	did not affect the cell cycle	~7
